Laboratory results reported in patent EP0520823A2, “Non-substrate peptide inhibitors of farnesyl protein transferase” (MERCK & CO. INC., priority 1991, dated 1992).
Where a SMILES comes first, the peptide text is derived from it. [ ]: non-standard residue; d: D form.

Assays:
[1] = system: partially pure bovine brain farnesyl-protein transferase; assay: Tetrapeptides tested as farnesylation substrates ([3H]FPP, TLC, autoradiography); assay type: biochemical; conditions: peptide 200 µM, 0.5 µM [3H] FPP, 30 min. at 30°C
Description: When a peptide was used as the acceptor substrate, there were two changes to the assay: (1) Ras protein was excluded and, (2) the reactions were stopped by the additon of one tenth volume of 0.5 M EDTA. […] After drying under vacuum, the plates were sprayed with […] exposed to X-ray film at -70°C. […] These Rf values reflect TLC conditions using ethylacetate:pyridine: acetic acid:water (10:5:1:3) as the eluent. […] CAIS (Rf=0.84) and CAIM (Rf=0.83)). Quenched reaction mixtures containing peptide, farnesyldiphosphate and farnesyl-protein transferase were separated by TLC followed by visualization of the radioactive species by autoradiography. […] Control peptides having a […] substitution were not substrates. […] Autoradiographic exposure time was overnight (15-20 hr).

[2] = target: T1, Farnesyl-protein transferase from bovine brain (partially purified) (Bos taurus, UniProt P29702+P49355); assay: Inhibition of Ras farnesylation by tetrapeptides; assay type: biochemical; conditions: Ras-CVLS at 3.5 µM, 0.25 µM [³H]FPP; average of 2-5 determinations
T1 construct: Cerebral lobes from bovine brains were homogenized in lysis buffer; from tissue; host or cells: bovine brain (cerebral lobes)
Description: The quenched reactions were allowed to stand for 15 minutes (to complete the precipitation process).
Fractions (20 mL) were collected and those containing farnesyl-protein transferase activity were pooled.
Single capital letter amino acid abbreviations are used above.

[3] = system: bovine brain farnesyl-protein transferase; conditions: earlier findings (Schaber et al.); cited from earlier work

Compound	Farnesylation substrate [1]	IC50 [2] [µM]	substrate for isoprenylation [3]
CSCC[C@H](NC(=O)[C@@H](Cc1ccccc1)NC(=O)[C@@H](NC(=O)[C@@H](N)CS)C(C)C)C(=O)O [CV(dF)M, Cys-Val-D-Phe-Met]	- (- < 1% conversion)	–	–
CC(C)C[C@@H](NC(=O)[C@@H](NC(=O)[C@@H](N)CS)C(C)C)C(=O)N[C@@H](CO)C(=O)O [CV(dL)S, Cys-Val-D-Leu-Ser]	- (- < 1% conversion)	20	–
CC(C)C[C@H](NC(=O)[C@@H](NC(=O)[C@@H](N)CS)C(C)C)C(=O)N[C@H](CO)C(=O)O [CVL(dS)]	+ (+ > 90% [^3H] farnesyl diphosphate converted to [^3H] farnesyl tetrapeptide)	11	–
CC(=O)N[C@H](CS)C(=O)N[C@H](C(=O)N[C@@H](CC(C)C)C(=O)N[C@@H](CO)C(=O)O)C(C)C [N-Ac-(dC)VLS] (Ac-[dC]VLS-OH)	+ (+ > 90% [^3H] farnesyl diphosphate converted to [^3H] farnesyl tetrapeptide)	60	–
CC(=O)N[C@@H](CS)C(=O)N[C@H](C(=O)N[C@@H](CC(C)C)C(=O)N[C@@H](CO)C(=O)O)C(C)C [N-Ac-CVLS] (Ac-CVLS-OH)	+ (+ > 90% [^3H] farnesyl diphosphate converted to [^3H] farnesyl tetrapeptide)	2	–
CC(C)C[C@H](NC(=O)[C@@H](NC(=O)[C@@H](N)CO)C(C)C)C(=O)N[C@@H](CO)C(=O)O [SVLS] (H-SVLS-OH)	- (- < 1% conversion)	–	–
SSGCVLS [heptapeptide SSGCVLS]	–	–	served as a substrate for isoprenylation
